Patent US20260242395A1, “AMINOHETEROARYL KINASE INHIBITORS” (ALLORION THERAPEUTICS INC, priority 2022, published 2026)

Assays:
Assay type in all cases: biochemical
[1] = biological target: T1, CDK6/CyclinD3 (Homo sapiens, UniProt Q00534); assay: CDK6/CyclinD3 kinase inhibitory activity (Caliper mobility shift); settings: enzyme 15 nM, ATP 800 μM, 28° C. 30 min; read-out: CDK6/Cyclin D3 IC50
T1 construct: purchased Carna 04-107
Outline: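 Compound preincubated 10 min at room temperature with CDK6/CyclinD3 (15 nM final) in HEPES pH 7.5/MgCl2/DTT buffer; reaction with 5-FAM peptide (3000 nM) and ATP 800 μM, 30 min at 28°C, stopped with EDTA. Substrate/product separated by microfluidic mobility shift; % conversion converted to % inhibition, IC50 from dose-response curves.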

[2] = biological target: T2, CDK2/CyclinE1 (Homo sapiens, UniProt P24941); assay: CDK2/CyclinE1 kinase inhibitory activity (Caliper mobility shift); settings: enzyme 3 nM, ATP 77 μM, 28° C. 30 min; read-out: CDK2/Cyclin E1 IC50
T2 construct: purchased Carna 04-165
Procedure: CDK2/CyclinE1 kinase inhibitory activity (IC50): 5 μl of various dilutions of test compounds in 1×kinase buffer (50 mM HEPES pH 7.5, 10 mM MgCl2, 2 mM DTT and […] Brij-35) were mixed with 10 μL of CDK2/CyclinE1 (Carna, 04-165 #, final concentration 3 nM in 1×Kinase buffer) in 384 plates and incubated at room temperature for 10 min. To initiate each reaction, 10 μL of peptide solution containing fluorescently-labeled-peptide 18(5-FAM-QSPKKG-CONH2) (GL, 114202 #, final concentration 3000 nM) and ATP (final concentration 77 μM) in 1×Kinase buffer was added to each of the wells containing test compound and CDK2/CyclinE1 mixture. The reaction was then allowed to proceed at 28° C. for 30 min and terminated by the addition of 25 μL stop buffer (100 mM HEPES pH 7.5, 50 mM EDTA, 0.2% Coating Reagent #3 (Perkin Elmer, 760050 #) and 0.015% Brij-35).
Following the kinase reaction, Caliper EZ reader II (Downstream voltages: −500V, Upstream voltages: −2250V, Base pressure −0.5 PSI, Screen pressure −1.2 PSI) was used to separate the phosphorylated (product) and the unphosphorylated (substrate) fluorescently-labeled peptide 18 based on their different mobility. Both substrate and product were measured and the ratio of these values were used to generate % conversion by Caliper EZ reader II. These conversion values were then transformed into % inhibition of kinase activity using the formula: % Inhibition=[(MA−X)/(MA−MI)]×100% where MA=conversion value of DMSO only controls, MI=conversion value of no enzyme controls and X=conversion value at any given compound dose. IC50 values were then calculated by plotting dose-response curves and then using the XLfit application in Excel software.

[3] = biological target: T3, CDK4/CyclinD1 (Homo sapiens, UniProt P11802); assay: CDK4/CyclinD1 kinase inhibitory activity (Caliper mobility shift); settings: enzyme 20 nM, ATP 672 uM, 28° C. 30 min; read-out: CDK4/Cyclin D1 IC50
T3 construct: purchased ProQinase 0142-0143-1
T3 sequence (P11802 whole entry): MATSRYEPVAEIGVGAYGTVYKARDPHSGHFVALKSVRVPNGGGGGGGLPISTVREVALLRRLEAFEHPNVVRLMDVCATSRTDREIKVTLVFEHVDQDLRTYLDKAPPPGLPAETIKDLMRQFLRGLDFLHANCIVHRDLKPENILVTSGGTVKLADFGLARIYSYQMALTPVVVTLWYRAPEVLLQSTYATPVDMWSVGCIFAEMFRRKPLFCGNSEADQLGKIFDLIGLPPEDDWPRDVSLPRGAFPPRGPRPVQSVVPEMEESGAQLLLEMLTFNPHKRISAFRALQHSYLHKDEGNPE
T3 sequence (P24385 whole entry partner): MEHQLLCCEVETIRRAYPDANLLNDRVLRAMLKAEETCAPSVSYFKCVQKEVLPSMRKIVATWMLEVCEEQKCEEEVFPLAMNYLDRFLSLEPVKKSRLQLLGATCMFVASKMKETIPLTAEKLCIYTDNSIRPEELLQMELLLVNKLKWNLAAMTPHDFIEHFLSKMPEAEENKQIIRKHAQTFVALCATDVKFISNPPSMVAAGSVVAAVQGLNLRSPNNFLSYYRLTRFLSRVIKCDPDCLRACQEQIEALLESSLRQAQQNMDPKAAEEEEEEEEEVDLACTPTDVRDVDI
Outline: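 Recombinant CDK4/Cyclin D1 (20 nM final) preincubated 10 min at room temperature with compound in HEPES pH 7.5 buffer with MgCl2, DTT and Triton X-100. Reaction started with 3000 nM FAM-labelled peptide and 672 uM ATP, run 30 min at 28° C, stopped with EDTA. Mobility-shift % conversion gave % inhibition, and IC50 came from dose-response fits.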

T1 sequence (Q00534 whole entry): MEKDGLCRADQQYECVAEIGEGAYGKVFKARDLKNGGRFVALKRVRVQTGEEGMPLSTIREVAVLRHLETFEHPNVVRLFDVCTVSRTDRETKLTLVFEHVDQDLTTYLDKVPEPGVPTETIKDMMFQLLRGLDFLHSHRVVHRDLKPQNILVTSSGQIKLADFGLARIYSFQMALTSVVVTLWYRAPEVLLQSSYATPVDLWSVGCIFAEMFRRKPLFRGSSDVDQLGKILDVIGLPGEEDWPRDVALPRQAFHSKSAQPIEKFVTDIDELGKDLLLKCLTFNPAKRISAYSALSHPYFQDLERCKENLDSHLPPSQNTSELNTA
T1 sequence (P30281 whole entry partner): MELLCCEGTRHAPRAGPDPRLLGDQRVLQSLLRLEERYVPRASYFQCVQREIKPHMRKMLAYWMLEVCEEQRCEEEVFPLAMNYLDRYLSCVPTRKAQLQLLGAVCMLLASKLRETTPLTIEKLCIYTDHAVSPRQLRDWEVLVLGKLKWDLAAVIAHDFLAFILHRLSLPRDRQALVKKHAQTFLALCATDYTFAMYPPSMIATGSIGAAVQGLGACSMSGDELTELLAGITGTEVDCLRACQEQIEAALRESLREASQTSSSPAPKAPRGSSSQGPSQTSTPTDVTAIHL

| Structure (SMILES) | IC50 [1] [nM] | IC50 [2] [nM] | IC50 [3] [nM] |
| --- | --- | --- | --- |
| [2H]c1nc2c(F)cc(-c3nc(N[C@@H]4CCOC[C@H]4O)ncc3C)cc2c2c1CC1(CC1)NC2 [Example 67] | ≥ 1000 | ≥ 1000 | 10 to 100 |
| CC1(C)Cc2cnc3c(F)cc(-c4nc(N[C@@H]5CCOC[C@H]5O)ncc4Cl)cc3c2CN1 [Example 30] | 10 to 100 | 100 to 1000 | < 10 |
| CC1(C)Cc2cnc3c(F)cc(-c4nc(N[C@@H]5CCOC[C@H]5O)ncc4C#N)cc3c2CN1 [Example 49] | 100 to 1000 | 100 to 1000 | < 10 |
| [2H]c1nc(N[C@@H]2CCOC[C@H]2O)nc(-c2cc(F)c3nc([2H])c4c(c3c2)CNC2(CC2)C4)c1Cl [Example 68] | 10 to 100 | 100 to 1000 | < 10 |
| Cc1c(C(C)(C)O)cnc2c(C)cc(-c3nc(N[C@@H]4CCOC[C@H]4O)ncc3Cl)cc12 [Example 58] | 100 to 1000 | ≥ 1000 | < 10 |
| Cc1nc2c(F)cc(-c3nc(N[C@@H]4CCOC[C@H]4O)ncc3Cl)cc2cc1C(C)(C)O [Example 5, (3S,4R)-4-((5-chloro-4-(8-fluoro-3-(2-hydroxypropan-2-yl)-2-methylquinolin-6-yl)pyrimidin-2-yl)amino)tetrahydro-2H-pyran-3-ol] | 100 to 1000 | 100 to 1000 | < 10 |
| CC(C)(O)c1cnc2c(F)cc(-c3nc(N[C@@H]4CCOC[C@H]4O)ncc3Cl)cc2c1Cl [Example 17, (3S,4R)-4-((5-chloro-4-(4-chloro-8-fluoro-3-(2-hydroxypropan-2-yl)quinolin-6-yl)pyrimidin-2-yl)amino)tetrahydro-2H-pyran-3-ol] | 10 to 100 | 100 to 1000 | < 10 |
| CC(C)(O)c1cnc2c(F)cc(-c3nc(N[C@@H]4CCOC[C@H]4O)ncc3Cl)cc2c1 [Example 1, (3S,4R)-4-((5-chloro-4-(8-fluoro-3-(2-hydroxypropan-2-yl)quinolin-6-yl)pyrimidin-2-yl)amino)tetrahydro-2H-pyran-3-ol] | 100 to 1000 | ≥ 1000 | < 10 |
| Cc1nc2c(F)cc(-c3nc(N[C@@H]4CCOC[C@H]4O)ncc3F)cc2c2c1CC1(CC1)NC2 [Example 65] | 100 to 1000 | 100 to 1000 | < 10 |
| [2H]c1nc2c(F)cc(-c3nc(N[C@@H]4CCOC[C@H]4O)ncc3Cl)cc2c2c1CC(C)(C)NC2 [Example 100] | 10 to 100 | 100 to 1000 | < 10 |
| [2H]c1nc(N[C@@H]2CCOC[C@H]2O)nc(-c2cc(F)c3nc(C)c(C(C)(C)O)cc3c2)c1F [Example 83] | 100 to 1000 | 100 to 1000 | < 10 |
| CC(C)(O)c1cnc2c(F)cc(-c3nc(Nc4ccc(-c5c[nH]cn5)cn4)ncc3F)cc2c1Cl [Example 52] | 10 to 100 | ≥ 1000 | < 10 |
| O[C@@H]1COCC[C@H]1Nc1ncc(Cl)c(-c2cc(F)c3ncc(C4(O)CC4)cc3c2)n1 [Example 29] | 100 to 1000 | 100 to 1000 | 10 to 100 |
| Cc1nc2c(F)cc(-c3nc(N[C@@H]4CCOC[C@H]4O)ncc3Cl)cc2c2c1CC(C)(C)NC2 [Example 98] | 100 to 1000 | 100 to 1000 | < 10 |
| O[C@@H]1COCC[C@H]1Nc1ncc(Cl)c(-c2cc(F)c3ncc4c(c3c2)CNCC4)n1 [Example 9, (3S,4R)-4-((5-chloro-4-(7-fluoro-1,2,3,4-tetrahydrobenzo[c][2,6]naphthyridin-9-yl)pyrimidin-2-yl)amino)tetrahydro-2H-pyran-3-ol] | 100 to 1000 | 100 to 1000 | < 10 |
| CC(C)(O)c1cnc2c(F)cc(-c3nc(N[C@@H]4CCOC[C@H]4O)ncc3F)cc2c1Cl [Example 22, (3S,4R)-4-((4-(4-chloro-8-fluoro-3-(2-hydroxypropan-2-yl)quinolin-6-yl)-5-fluoropyrimidin-2-yl)amino)tetrahydro-2H-pyran-3-ol] | 10 to 100 | 100 to 1000 | < 10 |
| O[C@@H]1COCC[C@H]1Nc1ncc(F)c(-c2cc(F)c3ncc4c(c3c2)CNC2(CC2)C4)n1 [Example 56] | 100 to 1000 | 10 to 100 | < 10 |
| [2H]c1nc2c(F)cc(-c3nc(N[C@@H]4CCOC[C@H]4O)ncc3F)cc2c(C)c1C(C)(C)O [Example 94] | 10 to 100 | 100 to 1000 | < 10 |
| Cc1[nH]cnc1-c1cnc2c(F)cc(-c3nc(N[C@@H]4CCOC[C@H]4O)ncc3Cl)cc2c1 [Example 18, (3S,4R)-4-((5-chloro-4-(8-fluoro-3-(5-methyl-1H-imidazol-4-yl)quinolin-6-yl)pyrimidin-2-yl)amino)tetrahydro-2H-pyran-3-ol] | 100 to 1000 | 100 to 1000 | < 10 |
| Cc1c(C(C)(C)O)cnc2c(F)cc(-c3nc(N[C@@H]4CCOC[C@H]4O)ncc3F)cc12 [Example 23, (3S,4R)-4-((5-fluoro-4-(8-fluoro-3-(2-hydroxypropan-2-yl)-4-methylquinolin-6-yl)pyrimidin-2-yl)amino)tetrahydro-2H-pyran-3-ol] | 10 to 100 | 10 to 100 | < 10 |
| Cc1nc2c(F)cc(-c3nc(N[C@@H]4CCOC[C@H]4O)ncc3Cl)cc2c2c1CCN(C)C2 [Example 37] | 100 to 1000 | ≥ 1000 | < 10 |
| O[C@@H]1COCC[C@H]1Nc1ncc(Cl)c(-c2cc(F)c3ncc4c(c3c2)C2CCC(C4)N2)n1 (single isomer, unassigned) [Example 20b] | 100 to 1000 | 100 to 1000 | < 10 |

More lines, now with the values ahead:

| IC50 [1] [nM] | IC50 [2] [nM] | IC50 [3] [nM] | Structure (SMILES) |
| --- | --- | --- | --- |
| 10 to 100 | 100 to 1000 | < 10 | Cc1c(C(C)O)cnc2c(F)cc(-c3nc(N[C@@H]4CCOC[C@H]4O)ncc3Cl)cc12 (single isomer, unassigned) [Example 88a] |
| 100 to 1000 | 100 to 1000 | < 10 | CC1Cc2cnc3c(F)cc(-c4nc(N[C@@H]5CCOC[C@H]5O)ncc4Cl)cc3c2CN1 (single isomer, unassigned) [Example 34b] |
| 10 to 100 | 100 to 1000 | < 10 | Cc1nc2c(F)cc(-c3nc(N[C@@H]4CCOC[C@H]4O)ncc3F)cc2c(C)c1C(C)O (single isomer, unassigned) [Example 81b] |
| 10 to 100 | 100 to 1000 | < 10 | CC1(C)NCc2c(cnc3c(F)cc(-c4nc(N[C@@H]5CCOC[C@H]5O)ncc4F)cc23)C1O (single isomer, unassigned) [Example 106b] |
| 100 to 1000 | 100 to 1000 | < 10 | CNC(C)c1cc2cc(-c3nc(N[C@@H]4CCOC[C@H]4O)ncc3Cl)cc(F)c2nc1C (single isomer, unassigned) [Example 45a] |
| 100 to 1000 | 100 to 1000 | < 10 | Cc1nc2c(F)cc(-c3nc(N[C@@H]4CCOC[C@H]4O)ncc3Cl)cc2c(Cl)c1C(C)O (single isomer, unassigned) [Example 35b] |
| 10 to 100 | 100 to 1000 | < 10 | Cc1nc2c(F)cc(-c3nc(N[C@@H]4CCOC[C@H]4O)ncc3Cl)cc2c(Cl)c1C(C)O (single isomer, unassigned) [Example 35a] |
| 100 to 1000 | 10 to 100 | < 10 | CNC(C)c1cnc2c(F)cc(-c3nc(N[C@@H]4CCOC[C@H]4O)ncc3Cl)cc2c1 (single isomer, unassigned) [Example 32a] |
| 10 to 100 | 100 to 1000 | < 10 | Cc1nc2c(F)cc(-c3nc(N[C@@H]4CCOC[C@H]4O)ncc3Cl)cc2cc1C(C)NC1CC1 (single isomer, unassigned) [Example 73b] |
| 100 to 1000 | ≥ 1000 | < 10 | CNC(C)c1cc2cc(-c3nc(N[C@@H]4CCOC[C@H]4O)ncc3Cl)cc(F)c2nc1C (single isomer, unassigned) [Example 45b] |
| 10 to 100 | 100 to 1000 | < 10 | Cc1nc2c(F)cc(-c3nc(N[C@@H]4CCOC[C@H]4O)ncc3F)cc2c(C)c1C(C)O (single isomer, unassigned) [Example 81a] |
